Measured values taken from publication PMC9964957, “A Liquid Chromatography Tandem Mass Spectrometry Method for the Simultaneous Estimation of the Dopamine Receptor Antagonist LE300 and Its N-methyl Metabolite in Plasma: Application to a Pharmacokinetic Study” (Molecules, 2023).
Where two headings read alike, the source gives them in different places.

Legend:
in vivo = settings: male, Wistar, rat, plasma, po, 10 mg/kg
[1] = rat plasma
[2] = Stability in stock preparations; format: physicochemical; settings: stock preparations kept at −80 °C for 28 days
Description: LE300 and MLE300 stock solutions were prepared separately in a mixture of methanol and water (1:1) at a concentration of 1 mg/mL. Ponatinib (IS) stock solution was prepared in DMSO at 1 mg/mL. […] Successive working solutions of LE300 and MLE300 were additionally obtained through dilution using ultrapure water at concentrations of 0.05, 0.5, 5, and 20 µg/mL. A working solution of IS was prepared in ultrapure water at a concentration of 20 ng/mL. Two calibrators at concentrations ranged from 1 to 200 ng/mL and 2 to 200 ng/mL for LE300 and MLE300, respectively, were prepared in blank rat plasma from the intermediate solutions. Different quality control samples for LE300 at 1.0 ng/mL for the LLOQ, 3.0 ng/mL for the QC sample at low concentration, (LOQ), 75 ng/mL for the QC sample at mid concentration (MQC), and 175 ng/mL for the QC sample at high concentration (HQC) were prepared by spiking an appropriate volume of the intermediate solutions with blank rat plasma. Similarly, different quality control samples for MLE300 at 2.0, 6.0, 90, and 180 ng/mL for LLOQ, LOQ, MQC, and HQC were prepared. The peak area ratios of LE300 and MLE300 to IS were treated to obtain the calibration curve of each drug. Alternatively, the corresponding regression equation was derived.

[3] = high QC (nominal 175 ng/mL LE300, 180 ng/mL MLE300)
[4] = low QC (nominal 3 ng/mL LE300, 6 ng/mL MLE300)

| Compound | AUC(0-inf) (in vivo) | AUC(0-t) (in vivo) | Tmax (in vivo) | half-life (in vivo) | Cmax (in vivo; Cmax (maximum plasma concentration), rat plasma, single oral dose 10 mg/kg LE300, mean ± SD, six rats) | CL/F (total clearance of the drug from plasma after oral administration) (rat, in vivo, po, 10 mg/kg) | Autosampler Stability (24 h at 15 °C) [1, 3] | Freeze-Thaw Stability (3 cycles, −80 °C) [1, 3] | Long-Term Stability (−80 °C for 28 d) [1, 3] | Short-Term Stability (4 h at Room T) [1, 3] | Autosampler Stability (24 h at 15 °C) [1, 4] | Freeze-Thaw Stability (3 cycles, −80 °C) [1, 4] | Long-Term Stability (−80 °C for 28 d) [1, 4] | Short-Term Stability (4 h at Room T) [1, 4] | Stability in stock preparations [2] | Cmax (in vivo) | CL/F (total clearance of the drug from plasma after oral administration) (rat plasma, single oral dose 10 mg/kg LE300, mean ± SD, six rats) |
| --- | --- | --- | --- | --- | --- | --- | --- | --- | --- | --- | --- | --- | --- | --- | --- | --- | --- |
| CN1CCc2ccccc2Cc2[nH]c3ccccc3c2CC1 [LE300, 7-methyl-6,7,8,9,14,15-hexahydro-5Hbenz[d]indolo[2,3-g]azecine] | 577 ± 22.4 ng·h/mL | 524 ± 24.3 ng·h/mL | 2 ± 0.18 h | 7.38 ± 0.17 h | 151 ± 12.5 ng/mL | 0.017 ± 0.01 L/h | 98.9 ± 1.3% | 99.2 ± 1.3% | 99.2 ± 1.7% | 98.3 ± 1.8% | 98.5 ± 1.8% | 97.9 ± 1.5% | 97.7 ± 1.4% | 98.5 ± 1.6% | perfect stability | – | – |
| CN1CCc2ccccc2Cc2c(c3ccccc3n2C)CC1 [MLE300] | 790 ± 37.2 ng·h/mL | 762 ± 34.3 ng·h/mL | 3 ± 0.18 h | 4.56 ± 0.29 h | – | – | 98.5 ± 1.7% | 99.5 ± 1.5% | 99.2 ± 2.3% | 98.8 ± 1.8% | 99.3 ± 1.7% | 98.2 ± 1.4% | 98.9 ± 1.4% | 97.9 ± 1.6% | perfect stability | 170 ± 26.3 ng/mL | 0.012 ± 0.01 L/h |
